Test results published in paper PMC7823712, “Synthesis and Antiplasmodial Activity of Novel Bioinspired Imidazolidinedione Derivatives” (Biomolecules, 2020).
In brackets after ≈: the same amount, converted by molar mass. Several values for one entry are separate records, joined by “and”; a condition that tells them apart may be missing. Equal entries are not always repeated. Where two headings read alike, the source gives them in different places.

How the values were obtained:
[1] = test system: P. falciparum D10 (CQ-sensitive) strain; assay: P. falciparum drug susceptibility assay (pLDH), D10 strain; format: cell-based, Plasmodium falciparum; settings: for IC50: Plasmodium falciparum, read-out: P. falciparum IC50 D10; for SI D10: SI = IC50 HaCaT/IC50 P. falciparum strain
Method: Plasmodium falciparum cultures were carried out according to Trager and Jensen, with slight modifications. […] Drugs were placed in 96-well flat-bottomed microplates starting from the concentration of 20 µg/mL and 8 serial two-fold dilutions were made. […] Parasite growth was determined spectrophotometrically (OD650) by measuring the activity of the parasite lactate dehydrogenase (pLDH), according to a modified version of the method of Makler in control and drug-treated cultures.

[2] = test system: P. falciparum W2 (CQ-resistant) strain; assay: P. falciparum drug susceptibility assay (pLDH), W2 strain; format: cell-based, Plasmodium falciparum; settings: for IC50: Plasmodium falciparum, read-out: P. falciparum IC50 W2; for RI: RI = IC50 CQ resistant P. falciparum strain/IC50 CQ sensitive P. falciparum strain; for SI W2: SI = IC50 HaCaT/IC50 P. falciparum strain
Method: Plasmodium falciparum cultures were carried out according to Trager and Jensen, with slight modifications. The CQ-susceptible strain D10 and the CQ-resistant strain W2 were maintained at 5% hematocrit (human type A-positive red blood cells) in RPMI 1640 (EuroClone, Milan, Italy) medium with the addition of 1% AlbuMax (Invitrogen, Milan, Italy), 0.01% hypoxanthine, 20 mM Hepes, and 2 mM glutamine. All the cultures were maintained at 37 °C in a standard gas mixture consisting of 1% O2, 5% CO2, and 94% N2. Compounds were dissolved in DMSO and then diluted with medium to achieve the required concentrations (final DMSO concentration < 1%, which is non-toxic to the parasite). Drugs were placed in 96-well flat-bottomed microplates starting from the concentration of 20 µg/mL and 8 serial two-fold dilutions were made. Asynchronous cultures with parasitaemia of 1–1.5% and 1% final hematocrit were aliquoted into the plates and incubated for 72 h at 37 °C. Parasite growth was determined spectrophotometrically (OD650) by measuring the activity of the parasite lactate dehydrogenase (pLDH), according to a modified version of the method of Makler in control and drug-treated cultures. The antimalarial activity is expressed as 50% inhibitory concentrations (IC50); […]

HaCaT cells = assay: Cytotoxicity assay (MTT) on HaCaT cells; format: cell-based; settings: Homo sapiens, 48 h
Method: HaCaT cells were cultured in DMEM medium with 10% FBS, GlutaMAX™ and antibiotic-antimycotic. Cells were cultured at 37 °C in a humidified atmosphere containing 5% CO2. To evaluate the cytotoxic activity of tested compounds, the MTT assay was used. Cells (5 × 10^3 cells/well) were plated into a 96-multiwell plate and incubated for 24 h, to grow as monolayers. Subsequently, different doses of compounds dissolved in DMSO were added to each well and mixed. Plates were then incubated for 48 h. The culture media with tested samples were then removed, and cells in each well were treated with 50 μL of complete culture medium with MTT. After 4 h of incubation in a cell culture incubator, MTT solution was replaced with DMSO (50 μL/well) and plates were agitated for 5 min to dissolve the formazan salts. Formazan absorbance was measured at 570 nm, with background measured at 630 nm, using an Asys UVM 340 Microplate Reader (Cambridge, UK). Results were expressed as IC50 values, with respect to the control (not treated cells).

Solubility in water = format: physicochemical; settings: statement in words
Hemolysis assay = format: cell-based; settings: human erythrocyte suspension, fresh human erythrocytes
Method: The study protocol was approved by the Bioethics Commission at the Lower Silesian Medical Chamber (1/PNHAB/2018). Hemolytic activity was estimated by the measurement of hemoglobin release from human erythrocyte suspensions after incubation with (5), (6), (7) and (8), as previously described. Compouds dissolved in DMSO were added in a volume corresponding to a final concentration of 20 µg/mL in the sample (DMSO was added in an identical volume). Negative and positive controls were also determined. Hemolysis (H) was calculated according to the following formula:H (%) = [(Asample − Anegative control)/(Apositive control − Anegative control)] × 100(1) where Asample, Anegative control, and Apositive control represent the absorbances of the sample, and negative (erythrocytes in PBS buffer) and positive (erythrocytes in distilled water) controls, respectively.

[3] = test system: FcM29-Cameroon, a high chloroquine-resistant strain of P. falciparum; design: method as in PMID 21612900; settings: cited from earlier work
[4] = test system: chloroquine-resistant Dd2 strain; design: method as in PMID 25797165; settings: compared with 3D7; cited from earlier work
[5] = test system: Plasmodium falciparum 3D7; design: method as in PMID 25797165; settings: read-out: IC50 against Plasmodium falciparum 3D7; cited from earlier work
W2 strain = test system: W2 strain; design: method as in PMID 16190773; settings: cited from earlier work
[6] = D10 (CQ-sensitive), 72 h, pLDH, IC50 expressed in µM
[7] = W2 (CQ-resistant), 72 h, pLDH, IC50 expressed in µM

SMILES	IC50 [1, 6]	IC50 ([1]; D10 (CQ-sensitive), 72 h, pLDH)	SI D10 [1]	IC50 [2, 7]	IC50 ([2]; W2 (CQ-resistant), 72 h, pLDH)	RI [2]	SI W2 [2]	IC50 (HaCaT cells)	IC50 (HaCaT cells; IC50 expressed in µM)	further results
O=C1NC2(CCc3ccccc32)C(=O)N1CCCCCN1CCN(c2nc3ccccc3[nH]2)CC1 (racemic) [(6), (R,S)-1-(5-(4-(1H-Benzo[d]imidazol-2-yl)piperazin-1-yl)pentyl)-2′,3′-dihydrospiro[imidazolidine-4,1′-indene]-2,5-dione]	17.5 ± 1.55 µM	8.27 ± 0.737 µg/mL	3.31	10.1 ± 0.2 µM	4.78 ± 0.0974 µg/mL	0.58	5.73	27.4 µg/mL	58 ± 1.48 µM	–
O=C1NC2(CCCc3ccccc32)C(=O)N1CCCCCN1CCN(C2Cc3ccccc3C2)CC1 (racemic) [(7), (R,S)-1-(5-(4-(2,3-Dihydro-1H-inden-2-yl)piperazin-1-yl)pentyl)-3′,4′-dihydro-2′H-spiro[imidazolidine-4,1′-naphthalene]-2,5-dione]	19.9 ± 0.29 µM	9.66 ± 0.141 µg/mL	3.16	8.93 ± 1.35 µM	4.35 ± 0.659 µg/mL	0.45	7.02	30.5 µg/mL	62.8 ± 2.12 µM	–
O=C1NC2(CCc3ccccc32)C(=O)N1CCCCCN1CCN(C2Cc3ccccc3C2)CC1 (racemic) [(8), (R,S)-1-(5-(4-(2,3-Dihydro-1H-inden-2-yl)piperazin-1-yl)pentyl)-2′,3′-dihydrospiro[imidazolidine-4,1′-indene]-2,5-dione]	–	> 10 µg/mL	–	12 ± 4.12 µM	5.65 ± 1.95 µg/mL	–	4.02	22.7 µg/mL	48.1 ± 2.49 µM	–
O=C1NC2(CCCc3ccccc32)C(=O)N1CCCCCN1CCN(c2nc3ccccc3[nH]2)CC1 (racemic) [Compound (5), (R,S)-1-(5-(4-(1H-Benzo[d]imidazol-2-yl)piperazin-1-yl)pentyl)-3′,4′-dihydro-2′H-spiro[imidazolidine-4,1′-naphthalene]-2,5-dione]	12.75 ± 0.02 µM	6.2 ± 0.892 µg/mL	3.26	4.98 ± 0.52 µM	2.42 ± 0.255 µg/mL	0.39	8.34	20.2 µg/mL	41.6 ± 2.43 µM	solubility in water (Solubility in water): low solubility in water; hemolysis at 30 min, 20 µg/mL (Hemolysis assay): 5.6%
CN1C(=N)N(C)/C(=C/c2c[nH]c3ccccc23)C1=O [Aplysinopsin]	–	–	–	–	–	–	–	–	–	IC50 against FcM29-Cameroon [3]: 0.43 µg/mL (≈ 1.69 µM); IC50 ([3]; read-out: IC50 against FcM29-Cameroon): 1.69 µM
CCN(CC)CCCC(C)Nc1ccnc2cc(Cl)ccc12 (stereo not shown) [CQ, Chloroquine, reference compound]	–	–	–	–	–	–	–	–	–	IC50 ([1]; D10, 72 h): 0.00764 µg/mL and 10 nM; IC50 ([2]; W2, 72 h): 0.103 µg/mL and 200 nM
CCN1C(=O)N(CCC(C)C)C2(CCN(Cc3cc(Cl)ccc3O)CC2)C1=O [CWHM-123, 8-(5-chloro-2-hydroxybenzyl)-3-ethyl-1-isopentyl-1,3,8-triazaspiro[4.5]decane-2,4-dione]	–	–	–	–	–	–	–	–	–	potency on the chloroquine-resistant Dd2 strain [4]: equivalent potency; IC50 [5]: 0.31 µM
CCN1C(=O)N(CCC(C)C)C2(CCN(Cc3cc(Cl)c(Cl)cc3O)CC2)C1=O [CWHM-505]	–	–	–	–	–	–	–	–	–	IC50 [5]: 0.099 µM
CC(C)C1C(=O)C(=O)N/C1=N/C(=N)Nc1ccc(Cl)c(Cl)c1 (stereo not shown) [WR182393]	–	–	–	–	–	–	–	–	–	IC50 for W2 (W2 strain): 2.66469 µg/mL
